Assay results taken from patent US11191820B2, “Method for inducing early T memory response with short peptides anti-tumor vaccine” (OSE IMMUNOTHERAPEUTICS, priority 2015, dated 2021).

What was measured:
Format in all cases: in vivo, human
central memory T cells [1] = assay: Cultured IFN-γ ELISPOT after 10-day in vitro stimulation of PBMC, phase 1/2 colon cancer trial of OSE-2101; design: key to net SFC of vaccine positive CTL responses: —, indicates SFC response did not meet criteria and vaccine response was negative; details: for Mean SFC: 10 colon patients
Experimental: (§1) Clinical study design. Both trials were designed as phase 1/2, open label, multi-center, single dose, multiple administration studies to evaluate the safety and immunogenicity of the OSE-2101 immunotherapy. Patients were treated with 1 ml OSE-2101 every 3 weeks for a total of six doses. Each dose was administered subcutaneously in the same vicinity in the deltoid or upper thigh region, or at a contralateral site if local side-effects were observed. The study duration for each completed patient was 18 weeks. Clinical responses or patient survival were not measured in either phase 1/2 studies.
(§2) Clinical sample processing. Blood or leukapheresis product was obtained from patients at the pre-treatment, the Week 9 and Week 18 time points, 3 weeks after the third and sixth dose of OSE-2101 respectively. Peripheral blood mononuclear cells (PBMC) were isolated from samples within 24 hours of collection using a FICOLL-PAQUE density gradient and cryopreserved in containers designed to ensure optimal freezing (Mr. Frosty, Nalgene). For use, cells were rapidly thawed at 37° C. then transferred to human AB serum-containing medium for work-up.
(§3) Measurement of central T memory cells responses and T effector memory cells. The CTL responses in 16 total patients (10 colon and six NSCLC) were monitored for CTL responses against each epitope and against the wild-type epitope of epitopes analogs. For each patient, the pre-treatment, Week 9 and Week 18 time points were batch-tested in the same experiment to allow pre- versus post-treatment response comparison in the same experiment. Central T memory cells responses were measured using an IFN-γ enzyme-linked immunospot (cultured ELISPOT) assay following in vitro stimulation of PBMC for 10 days with each vaccine epitope. Briefly, PBMC from each time point were stimulated on day 0 with 10 μg/ml of each epitope individually in replicate in 48-well culture plates (2×10^6 PBMC/well). All cultures were fed with rIL-2 (Endogen, Woburn, Mass.; 10 U/ml final concentration) on days 1, 4 and 7. Ten days after initiation of culture, cells were harvested and tested for activity against specific vaccine peptides and corresponding wild-type peptides of vaccine analogs in the T memory ELISPOT assay. Cells were tested in Millipore IP 96-well plates pre-coated with mouse anti-human IFN-γ antibody (Mabtech USA, Cincinnati, Ohio). Five×10^4 cells and 1.25×10^4 cells from each culture were plated in triplicate wells together with 10^5 irradiated autologous PBMC and 10 μg/ml peptide. As a control, CTL were also tested against an irrelevant HLA-A2.1-binding HBV peptide. After 20 hours incubation, T memory ELISPOT plates were developed by performing sequential incubations with biotinylated anti-human IFN-γ antibody (Mabtech USA), Avidin-Peroxidase Complex (APC, Vector Laboratories, Burlingame, Calif.), and 3-amino-9-ethyl carbazole (AEC) substrate (Sigma Aldrich, St. Louis, Mo.). Spot-forming cells (SFC) were enumerated using a computer-assisted image analysis system (Zeiss KS ELISPOT Reader, Carl Zeiss MicroImaging, Thornwood, N.J.). Data is reported as the net SFC per 5×10^4 cells after subtracting spots induced with the irrelevant HBV peptide.

central memory T cells [2] = assay: Cultured IFN-γ ELISPOT after 10-day in vitro stimulation of PBMC, phase 1/2 NSCLC trial of OSE-2101; design: key to net SFC of vaccine positive CTL responses: —, indicates SFC response did not meet criteria and vaccine response was negative; details: for Mean SFC / No. Positive Responses: 6 NSCLC patients
Experimental: as §1, §2, §3

central memory T cells [3] = assay: Central memory T cell cultured ELISPOT, phase 2 trial in advanced NSCLC
Experimental: CTL Immune responses measured though cultured Elispot. The immunogenicity was measured in Phase 2 clinical trial on cryopreserved PBMC from each test sample were thawed in 5% human culture medium (RPMI-1640 medium with 25 mM HEPES, supplemented with 5% human AB serum, 4 mM L-glutamine, 0.5 mM sodium pyruvate, 0.1 mM MEM non-essential amino acids, 100 μg/ml streptomycin, and 100 U/ml penicillin) containing 30 μg/ml DNAase. After centrifugation for 5 minutes at 1200 rpm, the cell pellets were resuspended in 5% human culture medium and washed 2 times. For the central Memory T cell cultured ELISPOT assay, 2×10^6/ml PBMC were placed in replicate wells in a 48-well plates and stimulated for 10 days with 10 μg/ml of each peptide. As a positive control, PBMC were also stimulated with a pool of recall viral peptides. Human rIL2 (10 U/ml) was added to the peptide-stimulated cultures at day 1, day 4 and day 7. After 10 days the stimulated cells were harvested and plated at a concentration of 5×10^4/well. Assay wells also received irradiated autologous PBMC (1×10^5/well) and 10 μg/ml peptide, either the vaccine peptide, irrelevant peptide or positive control peptides. Cells stimulated in vitro with each analog epitope were also tested against the corresponding wild-type epitope.
Data analysis and acceptance criteria. Mean and standard deviation (SD) of spots in replicate wells were calculated in all assays by transferring raw ELISPOT data from each experiment to an Excel-based computer program. Positive vaccine-induced T-cell responses were determined according to the criteria described below.
Acceptance Criteria for peptide-Induced specific T-cell response through central memory T cells: The positive criteria for CTL responses used in the phase 2 trial was identical to the criteria in the phase 1/2 trials which was established prospectively after analyzing the variability of pre-treatment responses in patients against each vaccine epitope and the irrelevant HBV control epitope. A positive peptide-induced CTL/T memory response to a given epitope met all of the following conditions: 1) was greater than 5 SFC above the irrelevant epitope response, 2) was greater than the mean SFC of the irrelevant epitope response, plus 2 SD, and 3) was two-fold greater than the SFC response in the pre-vaccination sample from the same patient, plus 2 SD. The inclusion of “plus two standard deviations” was used to accommodate the assay variability and served to increase the criteria stringency.

IMIGHLVGV [CEA.691H5 A]
Mean SFC (central memory T cells [1]; Week 9): 178.0 SFC per 50,000 cells | Mean SFC (central memory T cells [1]; Week 18): 300.6 SFC per 50,000 cells | net SFC of vaccine positive CTL responses (central memory T cells [1]; colon patient 551, Week 9): 92.7 SFC per 50,000 cells | net SFC of vaccine positive CTL responses (central memory T cells [1]; colon patient 551, Week 18): 68.7 SFC per 50,000 cells | net SFC of vaccine positive CTL responses (central memory T cells [1]; colon patient 601, Week 9): 417.3 SFC per 50,000 cells | net SFC of vaccine positive CTL responses (central memory T cells [1]; colon patient 601, Week 18): 133.7 SFC per 50,000 cells | net SFC of vaccine positive CTL responses (central memory T cells [1]; colon patient 602, Week 9): — | net SFC of vaccine positive CTL responses (central memory T cells [1]; colon patient 602, Week 18): — | net SFC of vaccine positive CTL responses (central memory T cells [1]; colon patient 603, Week 9): 32.7 SFC per 50,000 cells | net SFC of vaccine positive CTL responses (central memory T cells [1]; colon patient 603, Week 18): 8.0 SFC per 50,000 cells | net SFC of vaccine positive CTL responses (central memory T cells [1]; colon patient 604, Week 9): 109.3 SFC per 50,000 cells | net SFC of vaccine positive CTL responses (central memory T cells [1]; colon patient 604, Week 18): 397.3 SFC per 50,000 cells | net SFC of vaccine positive CTL responses (central memory T cells [1]; colon patient 605, Week 9): 65.7 SFC per 50,000 cells | net SFC of vaccine positive CTL responses (central memory T cells [1]; colon patient 605, Week 18): — | net SFC of vaccine positive CTL responses (central memory T cells [1]; colon patient 606, Week 9): 24.3 SFC per 50,000 cells | net SFC of vaccine positive CTL responses (central memory T cells [1]; colon patient 606, Week 18): 45.0 SFC per 50,000 cells | net SFC of vaccine positive CTL responses (central memory T cells [1]; colon patient 607, Week 9): 593.3 SFC per 50,000 cells | net SFC of vaccine positive CTL responses (central memory T cells [1]; colon patient 607, Week 18): 1648.0 SFC per 50,000 cells | net SFC of vaccine positive CTL responses (central memory T cells [1]; colon patient 608, Week 9): — | net SFC of vaccine positive CTL responses (central memory T cells [1]; colon patient 608, Week 18): 18.0 SFC per 50,000 cells | net SFC of vaccine positive CTL responses (central memory T cells [1]; colon patient 609, Week 9): 89.0 SFC per 50,000 cells | net SFC of vaccine positive CTL responses (central memory T cells [1]; colon patient 609, Week 18): 86.0 SFC per 50,000 cells | Mean SFC (central memory T cells [2]; Week 9): 84.2 SFC per 50,000 cells | No. Positive Responses (central memory T cells [2]; Week 9): 2 | Mean SFC (central memory T cells [2]; Week 18): 132.7 SFC per 50,000 cells | No. Positive Responses (central memory T cells [2]; Week 18): 3 | net SFC of vaccine positive CTL responses (central memory T cells [2]; NSCLC patient 201, Week 9): — | net SFC of vaccine positive CTL responses (central memory T cells [2]; NSCLC patient 201, Week 18): — | net SFC of vaccine positive CTL responses (central memory T cells [2]; NSCLC patient 502, Week 9): — | net SFC of vaccine positive CTL responses (central memory T cells [2]; NSCLC patient 502, Week 18): — | net SFC of vaccine positive CTL responses (central memory T cells [2]; NSCLC patient 504, Week 9): 42.7 SFC per 50,000 cells | net SFC of vaccine positive CTL responses (central memory T cells [2]; NSCLC patient 504, Week 18): 284.0 SFC per 50,000 cells | net SFC of vaccine positive CTL responses (central memory T cells [2]; NSCLC patient 505, Week 9): — | net SFC of vaccine positive CTL responses (central memory T cells [2]; NSCLC patient 505, Week 18): 45.3 SFC per 50,000 cells | net SFC of vaccine positive CTL responses (central memory T cells [2]; NSCLC patient 532, Week 9): 125.7 SFC per 50,000 cells | net SFC of vaccine positive CTL responses (central memory T cells [2]; NSCLC patient 532, Week 18): — | net SFC of vaccine positive CTL responses (central memory T cells [2]; NSCLC patient 651, Week 9): — | net SFC of vaccine positive CTL responses (central memory T cells [2]; NSCLC patient 651, Week 18): 68.7 SFC per 50,000 cells | % of patients with positive CTL/central memory T cell response (central memory T cells [3]; phase 2, month 9): 43% | patients with positive CTL/central memory T cell response / patients tested (central memory T cells [3]; phase 2, month 9): 3/7 | % of patients with positive CTL/central memory T cell response (central memory T cells [3]; phase 2, month 12): 50% | patients with positive CTL/central memory T cell response / patients tested (central memory T cells [3]; phase 2, month 12): 2/4 | % of patients with positive CTL/central memory T cell response (central memory T cells [3]; phase 2, week 9): 64% | patients with positive CTL/central memory T cell response / patients tested (central memory T cells [3]; phase 2, week 9): 7/11 | % of patients with positive CTL/central memory T cell response (central memory T cells [3]; phase 2, week 18): 91% | patients with positive CTL/central memory T cell response / patients tested (central memory T cells [3]; phase 2, week 18): 10/11 | % of patients with positive CTL/central memory T cell response (central memory T cells [3]; phase 2, week 30): 33% | patients with positive CTL/central memory T cell response / patients tested (central memory T cells [3]; phase 2, week 30): 2/6
